Publication PMC10986521 (Microbiology Spectrum, 2024)

How the values were obtained:
[1] = test system: FMDV; settings: cited from earlier work
[2] = test system: FMDV; settings: cited from earlier work; remark: listed apart in the source
[3] = test system: FMDV; settings: mouse, in vivo; cited from earlier work
[4] = test system: FMDV; settings: pig, in vivo; cited from earlier work
[5] = target: T1, FMDV 3Cpro (Foot-and-mouth disease virus A, UniProt A0A097I315); test: biochemical; design: species or system FMDV A/IND287/96 strain (serotype A); settings: FRET assay (IC50)
[6] = target: T1, FMDV 3Cpro; test: cell-based; design: species or system FMDV A/IND287/96 strain; settings: Cell-based assay (EC50)
[7] = test system: FMDV; settings: read-out: in vitro potency against FMDV (EC50); cited from earlier work
[8] = in vitro; settings: human
[9] = test system: SARS-CoV-2; settings: read-out: EC50 against SARS-CoV-2; cited from earlier work

Row | SMILES | IC50 [5] | EC50 [6] | CC50 [8] | other results
1 | NC(=O)c1ncn([C@@H]2O[C@H](CO)[C@@H](O)[C@H]2O)n1 [ribavirin] |  |  |  | in vitro activity against FMDV (EC50) [1]: low micromolar to millimolar range
2 | N#Cc1cc(-c2ccccc2)[nH]c1-c1nccc2ccccc12 [NSC116640] |  |  |  | replication of FMDV in cell culture via inhibiting 3Cpro [2]: inhibited the replication of FMDV in cell culture
3 | Cc1cc(CCCOc2c(C)cc(-c3noc(C(F)(F)F)n3)cc2C)on1 [pleconaril] |  |  |  | in vitro activity against FMDV (EC50) [1]: low micromolar to millimolar range
4 | CCCCOc1nc(N)c2c(n1)N(Cc1cccc(CN3CCCC3)c1)CC(=O)N2 [GS-9620] |  |  |  | survival rate in FMDV-vaccinated and un-vaccinated mice [3]: enhanced survival rate
5 | NC(=O)c1ncc[nH]c1=O [Compound T-1105] |  |  |  | viremia in FMDV-challenged pigs [4]: reduced or prevented viremia
6 | CCOC(=O)/C=C/[C@H](C[C@@H]1CCNC1=O)NC(=O)[C@@H](CC(=O)[C@@H](NC(=O)c1cc(C)on1)C(C)C)Cc1ccc(F)cc1 [AG7088, Rupintrivir, reference compound] | 4300 ± 200 nM | 10300 ± 200 nM | > 50000 nM | EC50 [7]: 10000 to 20000 nM
7 | O=c1cc(-c2ccc(O)c(O)c2)oc2cc(O)cc(O)c12 [luteolin] |  |  |  | replication of FMDV in cell culture via inhibiting 3Cpro [2]: inhibited the replication of FMDV in cell culture
8 | COc1ccc(-c2cc(=O)c3c(O)cc(O)c(-c4cc(-c5cc(=O)c6c(O)cc(O)cc6o5)ccc4OC)c3o2)cc1 [isoginkgetin] |  |  |  | replication of FMDV in cell culture via inhibiting 3Cpro [2]: inhibited the replication of FMDV in cell culture
9 | CC(C)C[C@H](NC(=O)OCC(C)(C)Sc1ccccc1)C(=O)N[C@H](C=O)C[C@@H]1CCNC1=O [Compound D1c] | 1200 ± 710 nM | 1850 ± 350 nM | > 50000 nM | EC50 [9]: 12 nM
10 | CC(C)C[C@H](NC(=O)OC[C@@H]1C[C@H]1C1CCCCC1)C(=O)N[C@H](C=O)C[C@H]1CCNC1=O [Compound C15c] | 380 ± 110 nM | 450 ± 50 nM | > 50000 nM | 
11 | CC(C)C[C@H](NC(=O)OCC(C)(C)Sc1nc2ccccc2[nH]1)C(=O)N[C@H](C=O)C[C@@H]1CCNC1=O [Compound D9c] | 2150 ± 340 nM | > 10000 nM | > 50000 nM | 
12 | [2H]C([2H])(OC(=O)N[C@@H](CC(C)C)C(=O)N[C@@H](C[C@@H]1CCNC1=O)C(O)S(=O)(=O)[O-])C(C)(C)Oc1ccc(Cl)cc1.[Na+] (stereo partly drawn) [Compound D12d] | 190 ± 10 nM | 430 ± 310 nM | > 50000 nM | 
13 | CC(C)C[C@H](NC(=O)OC[C@@H]1C[C@H]1C1CCC(F)(F)CC1)C(=O)N[C@H](C=O)C[C@H]1CCNC1=O [Compound C17c] | 650 ± 70 nM | > 10000 nM | > 50000 nM | 
14 | COc1ccccc1[C@@H]1C[C@H]1COC(=O)N[C@@H](CC(C)C)C(=O)N[C@H](C=O)C[C@H]1CCNC1=O [Compound C11c] | 950 ± 210 nM | 1080 ± 50 nM | > 50000 nM | 
15 | COc1cccc([C@@H]2C[C@H]2COC(=O)N[C@@H](CC(C)C)C(=O)N[C@H](C=O)C[C@H]2CCNC2=O)c1 [Compound C9c] | 750 ± 140 nM | 2950 ± 280 nM | > 50000 nM | 
16 | CC(C)C[C@H](NC(=O)OC[C@@H]1C[C@H]1Cc1ccccc1)C(=O)N[C@H](C=O)C[C@H]1CCNC1=O [Compound C3c] | 690 ± 130 nM | 2740 ± 2140 nM | > 50000 nM | 
17 | CC(C)C[C@H](NC(=O)OCCSc1ccccc1)C(=O)N[C@@H](C[C@@H]1CCNC1=O)C(O)S(=O)(=O)O (stereo partly drawn) [Compound D8d] | 1030 ± 240 nM | 1950 ± 220 nM | > 50000 nM | 
18 | [2H]C([2H])(OC(=O)N[C@@H](CC(C)C)C(=O)N[C@@H](C[C@@H]1CCNC1=O)C(O)S(=O)(=O)[O-])C(C)(C)Oc1cccc(Cl)c1.[Na+] (stereo partly drawn) [Compound D14d] | 650 ± 70 nM | 4810 ± 3060 nM | > 50000 nM | 
19 | CC(C)C[C@H](NC(=O)OCC(C)(C)Sc1nc2ccccc2[nH]1)C(=O)N[C@@H](C[C@@H]1CCNC1=O)C(O)S(=O)(=O)O (stereo partly drawn) [Compound D9d] | 1750 ± 920 nM | > 10000 nM | > 50000 nM | 
20 | CC(C)C[C@H](NC(=O)OC[C@H]1[C@H](c2ccccc2)C1(F)F)C(=O)N[C@@H](C[C@H]1CCNC1=O)C(O)S(=O)(=O)O (stereo partly drawn) [Compound C2d] | 1100 ± 570 nM | 1450 ± 210 nM | > 50000 nM | 
21 | CCC[C@@H]1C[C@@H]1COC(=O)N[C@@H](CC(C)C)C(=O)N[C@@H](C[C@H]1CCNC1=O)C(O)S(=O)(=O)O (stereo partly drawn) [Compound C14d] | 1050 ± 640 nM | 6300 ± 850 nM | > 50000 nM | 
22 | CC(C)C[C@H](NC(=O)OC[C@@H]1C[C@H]1CC1CCCCC1)C(=O)N[C@H](C=O)C[C@H]1CCNC1=O [Compound C16c] | 360 ± 90 nM | 900 ± 60 nM | > 50000 nM | 

Row | SMILES | IC50 [5] | EC50 [6] | CC50 [8] | other results
23 | CC(C)C[C@H](NC(=O)OCC(C)(C)Oc1cccc(Cl)c1)C(=O)N[C@@H](C[C@@H]1CCNC1=O)C(O)S(=O)(=O)O (stereo partly drawn) [Compound D13d] | 650 ± 210 nM | 7700 ± 850 nM | > 50000 nM | 
24 | CC(C)C[C@H](NC(=O)[C@H](Cc1cccc2ccccc12)NC(=O)OCc1ccccc1)C(=O)N[C@@H](C[C@@H]1CCNC1=O)C(=O)C(=O)NC(C)C [Compound E6] | 60 ± 60 nM | 150 ± 70 nM | > 50000 nM | 
25 | CC(C)C[C@H](NC(=O)OCC(C)(C)Oc1ccc(F)cc1)C(=O)N[C@H](C=O)C[C@@H]1CCNC1=O [Compound D15c] | 450 ± 70 nM | 5250 ± 640 nM | > 50000 nM | 
26 | CC(C)C[C@H](NC(=O)OC[C@H]1[C@H](Cc2ccccc2)C1(F)F)C(=O)N[C@@H](C[C@H]1CCNC1=O)C(O)S(=O)(=O)O (stereo partly drawn) [Compound C4d] | 1350 ± 350 nM | 3650 ± 630 nM | > 50000 nM | 
27 | CC(C)C[C@H](NC(=O)OC[C@@H]1C[C@H]1c1cccc(Cl)c1)C(=O)N[C@@H](C[C@H]1CCNC1=O)C(O)S(=O)(=O)O (stereo partly drawn) [Compound C6d] | 580 ± 110 nM | 2850 ± 490 nM | > 50000 nM | 
28 | CC(C)C[C@H](NC(=O)OCC(C)(C)S(=O)(=O)c1ccccc1)C(=O)N[C@@H](C[C@@H]1CCNC1=O)C(O)S(=O)(=O)O (stereo partly drawn) [Compound D4d] | 650 ± 90 nM | > 10000 nM | > 50000 nM | 
29 | CC(C)C[C@H](NC(=O)OCC(C)(C)Oc1ccc(Cl)cc1)C(=O)N[C@H](C=O)C[C@@H]1CCNC1=O [Compound D11c] | 690 ± 60 nM | 640 ± 150 nM | > 50000 nM | 
30 | CC(C)C[C@H](NC(=O)OCC(C)(C)Sc1ccc(F)cc1)C(=O)N[C@@H](C[C@@H]1CCNC1=O)C(O)S(=O)(=O)O (stereo partly drawn) [Compound D6d] | 980 ± 110 nM | 5850 ± 350 nM | > 50000 nM | 
31 | CC(C)C[C@H](NC(=O)OCc1ccccc1)C(=O)N[C@@H](C[C@@H]1CCNC1=O)C(=O)C(=O)NC(C)(C)C [Compound E6g] | 1500 ± 100 nM | 5800 ± 300 nM | > 50000 nM | 
32 | [2H]C([2H])(OC(=O)N[C@@H](CC(C)C)C(=O)N[C@@H](C[C@@H]1CCNC1=O)C(O)S(=O)(=O)[O-])C(C)(C)Sc1ccccc1.[Na+] (stereo partly drawn) [Compound D2d] | 1150 ± 70 nM | 2910 ± 430 nM | > 50000 nM | 
33 | CCC[C@@H]1C[C@@H]1COC(=O)N[C@@H](CC(C)C)C(=O)N[C@H](C=O)C[C@H]1CCNC1=O [Compound C14c] | 630 ± 100 nM | 7050 ± 780 nM | > 50000 nM | 
34 | CC(C)C[C@H](NC(=O)OC[C@@H]1C[C@H]1c1ccc(F)cc1)C(=O)N[C@H](C=O)C[C@H]1CCNC1=O [Compound C7c] | 590 ± 40 nM | 2000 ± 140 nM | > 50000 nM | 
35 | COc1ccc([C@@H]2C[C@H]2COC(=O)N[C@@H](CC(C)C)C(=O)N[C@H](C=O)C[C@H]2CCNC2=O)cc1 [Compound C10c] | 1250 ± 70 nM | 3650 ± 1480 nM | > 50000 nM | 
36 | COc1ccccc1[C@@H]1C[C@@H]1COC(=O)N[C@@H](CC(C)C)C(=O)N[C@H](C=O)C[C@H]1CCNC1=O [Compound C12c] | 500 ± 140 nM | 880 ± 250 nM | > 50000 nM | 
37 | O=c1c(O)c(-c2ccc(O)c(O)c2)oc2cc(O)cc(O)c12 [quercetin] |  |  |  | replication of FMDV in cell culture via inhibiting 3Cpro [2]: inhibited the replication of FMDV in cell culture
38 | CCC[C@@H]1C[C@H]1COC(=O)N[C@@H](CC(C)C)C(=O)N[C@H](C=O)C[C@H]1CCNC1=O [Compound C13c] | 1550 ± 70 nM | 2950 ± 210 nM | > 50000 nM | 
39 | CC(C)C[C@H](NC(=O)OCC(C)(C)Sc1ccccc1)C(=O)N[C@H](C#N)C[C@@H]1CCNC1=O [Compound D1f] | > 25000 nM | > 10000 nM | > 50000 nM | 
40 | CC(C)C[C@H](NC(=O)OCC(C)(C)Sc1ccccc1)C(=O)N[C@@H](C[C@@H]1CCNC1=O)C(O)S(=O)(=O)O (stereo partly drawn) [Compound D1d] | 1010 ± 420 nM | 1500 ± 430 nM | > 50000 nM | EC50 [9]: 10 nM
41 | CCOC(=O)CNC(=O)C(=O)[C@H](C[C@@H]1CCNC1=O)NC(=O)[C@H](CC(C)C)NC(=O)OCc1ccccc1 [Compound E6d] | 2200 ± 50 nM | 9200 ± 100 nM | > 50000 nM | 
42 | Oc1ccccc1-c1nc2c3ccccc3c3ccccc3c2[nH]1 [NSC332670] |  |  |  | replication of FMDV in cell culture via inhibiting 3Cpro [2]: inhibited the replication of FMDV in cell culture
43 | CCC[C@@H]1C[C@H]1COC(=O)N[C@@H](CC(C)C)C(=O)N[C@@H](C[C@H]1CCNC1=O)C(O)S(=O)(=O)O (stereo partly drawn) [Compound C13d] | 750 ± 70 nM | 3100 ± 420 nM | > 50000 nM | 
